From ChEMBL document CHEMBL1201862, “PubChem BioAssay data set” (2004)
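Where inhibition never reached the appropriate level, the endpoint shown equals the highest concentration tested. Otherwise, values were interpolated linearly from a five-concentration, 48-hour dose response in 96-well plates. At the GI50, growth is halved.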 The source made the active and inactive calls. No stated cut-off is given here; in the data, active = GI50 up to about 1.1 µM and inactive = higher.

Experiments:
Test in all cases: DTP human tumour cell line panel, 48 h
NCI-H460 = test system: NCI-H460
LOX IMVI = test system: LOX IMVI
SN12C = test system: SN12C
NCI-H226 = test system: NCI-H226
Malme-3M = test system: Malme-3M
IGROV-1 = test system: IGROV-1
CAKI-1 = test system: CAKI-1
SNB-19 = test system: SNB-19
SW-620 = test system: SW-620
UACC-62 = test system: UACC-62
SF-539 = test system: SF-539
UACC-257 = test system: UACC-257
786-0 = test system: 786-0
HOP-92 = test system: HOP-92
HOP-62 = test system: HOP-62
A498 = test system: A498

SMILES	GI50 (NCI-H460)	GI50 (LOX IMVI)	GI50 (SN12C)	GI50 (NCI-H226)	GI50 (Malme-3M)	GI50 (IGROV-1)	GI50 (CAKI-1)	GI50 (SNB-19)	GI50 (SW-620)	GI50 (UACC-62)	GI50 (SF-539)	GI50 (UACC-257)	GI50 (786-0)	GI50 (HOP-92)	GI50 (HOP-62)	GI50 (A498)
CC(C)c1cccc(C(C)C)c1NC(=O)C(=O)C(C(=O)c1ccccc1-c1ccccc1)C1OC(=O)c2ccccc21 (configuration not stated)	15 µM (inactive)	14.2 µM (inactive)	20.8 µM (inactive)	> 10 µM (inactive)	14.8 µM (inactive)	24.3 µM (inactive)	30.1 µM (inactive)	16.8 µM (inactive)	19.9 µM (inactive)	17.5 µM (inactive)	12.6 µM (inactive)	12.6 µM (inactive)	17.8 µM (inactive)			
CCc1cccc(C)c1NC(=O)CCc1nnc(S)[nH]1	> 100 µM (inactive)	> 100 µM (inactive)	> 100 µM (inactive)	> 100 µM (inactive)	> 100 µM (inactive)	> 100 µM (inactive)	> 100 µM (inactive)	> 100 µM (inactive)	> 100 µM (inactive)	> 100 µM (inactive)	> 100 µM (inactive)	> 100 µM (inactive)	> 100 µM (inactive)	> 100 µM (inactive)	> 100 µM (inactive)	
CN1CCc2c1nc(-c1ccc([N+](=O)[O-])cc1)c1c2N(C)CC1	> 100 µM (inactive)	44.2 µM (inactive)	> 100 µM (inactive)		> 100 µM (inactive)	> 100 µM (inactive)	26.4 µM (inactive)	> 100 µM (inactive)	> 100 µM (inactive)	> 100 µM (inactive)	> 100 µM (inactive)	> 100 µM (inactive)	> 100 µM (inactive)	9.4 µM (inactive)	86.7 µM (inactive)	43.2 µM (inactive)
OCc1ccc2[n+](c1)CCC1c3ccccc3NC21 (configuration not stated)	> 300 µM (inactive)	> 300 µM (inactive)	> 300 µM (inactive)	> 300 µM (inactive)	75.5 µM (inactive)	> 300 µM (inactive)	> 300 µM (inactive)	> 300 µM (inactive)	> 300 µM (inactive)	> 300 µM (inactive)	> 300 µM (inactive)	283 µM (inactive)	> 300 µM (inactive)	230 µM (inactive)	> 300 µM (inactive)	
C/C=C1\C=C(OC)CN(CCc2c[nH]c3ccccc23)C1	26 µM (inactive)	23.2 µM (inactive)	59.6 µM (inactive)	27.2 µM (inactive)	22.5 µM (inactive)	> 100 µM (inactive)		> 100 µM (inactive)	70.3 µM (inactive)	41.3 µM (inactive)	> 100 µM (inactive)	48.4 µM (inactive)	59 µM (inactive)		73.5 µM (inactive)	44 µM (inactive)
CCN(CC)CCn1c(C(C)(C)C)nc2ccccc21	> 100 µM (inactive)		> 100 µM (inactive)	> 100 µM (inactive)	> 100 µM (inactive)	> 100 µM (inactive)	> 100 µM (inactive)	> 100 µM (inactive)	> 100 µM (inactive)	> 100 µM (inactive)	> 100 µM (inactive)	> 100 µM (inactive)	18.7 µM (inactive)	> 100 µM (inactive)	> 100 µM (inactive)	
O=C1C=CC2OC(c3ccccc3)C(O)C2O1 (configuration not stated)	4.7 µM (inactive)	1.95 µM (inactive)	7.03 µM (inactive)	1.48 µM (inactive)	3.02 µM (inactive)	8.99 µM (inactive)	2.85 µM (inactive)	11.4 µM (inactive)	2.17 µM (inactive)	4.94 µM (inactive)	3.07 µM (inactive)	6.31 µM (inactive)		2.15 µM (inactive)	12 µM (inactive)	2.27 µM (inactive)
O=C(c1cc2ccccc2o1)N(Cc1ccccc1)c1ccccc1	26.9 µM (inactive)	21 µM (inactive)	18 µM (inactive)	15.6 µM (inactive)	23.7 µM (inactive)	35.5 µM (inactive)	19.5 µM (inactive)	35.9 µM (inactive)	15.8 µM (inactive)	14.4 µM (inactive)		20.3 µM (inactive)	20.2 µM (inactive)	20.7 µM (inactive)	30.5 µM (inactive)	34.4 µM (inactive)
CC1CC(=O)CC[C@@H]1OCc1ccccc1 (some centres not stated)	> 100 µM (inactive)	> 100 µM (inactive)	> 100 µM (inactive)		> 100 µM (inactive)	> 100 µM (inactive)	> 100 µM (inactive)	> 100 µM (inactive)	> 100 µM (inactive)	> 100 µM (inactive)	> 100 µM (inactive)	> 100 µM (inactive)	> 100 µM (inactive)		> 100 µM (inactive)	> 100 µM (inactive)
CCN(CC)C(=O)C(C)n1cc(C)c(=O)[nH]c1=O (configuration not stated)	> 100 µM (inactive)	> 100 µM (inactive)	> 100 µM (inactive)		> 100 µM (inactive)	> 100 µM (inactive)		> 100 µM (inactive)	> 100 µM (inactive)	> 100 µM (inactive)	> 100 µM (inactive)		> 100 µM (inactive)		> 100 µM (inactive)	
CSCSCC(CO)NC(=O)/C=C\c1c(C)[nH]c(=O)[nH]c1=O (configuration not stated)	12.2 µM (inactive)	14.1 µM (inactive)	8.15 µM (inactive)	35 µM (inactive)	8.18 µM (inactive)	23.7 µM (inactive)	2.88 µM (inactive)	14.7 µM (inactive)	15.7 µM (inactive)	22.4 µM (inactive)	32.9 µM (inactive)	48.6 µM (inactive)		0.838 µM (active)	38.8 µM (inactive)	23.6 µM (inactive)
CCN(CC)CCNC(=O)c1cccc2cc3ccccc3nc12	2.88 µM (inactive)	5.57 µM (inactive)	5.18 µM (inactive)	4.18 µM (inactive)		5.2 µM (inactive)	4.48 µM (inactive)	7.45 µM (inactive)	3.49 µM (inactive)	4.79 µM (inactive)	4.49 µM (inactive)		6.15 µM (inactive)	4.78 µM (inactive)	10.4 µM (inactive)	6.92 µM (inactive)
Cc1ccc(C(=O)N2CCCCC2)cc1/N=N/N(C)C	> 100 µM (inactive)	> 100 µM (inactive)	> 100 µM (inactive)	> 100 µM (inactive)	> 100 µM (inactive)	> 100 µM (inactive)	> 100 µM (inactive)	> 100 µM (inactive)	> 100 µM (inactive)	> 100 µM (inactive)	> 100 µM (inactive)	> 100 µM (inactive)	> 100 µM (inactive)		> 100 µM (inactive)	> 100 µM (inactive)
CCOC1CC2OC(=O)C1C=C2C(=O)OC (configuration not stated)	79.3 µM (inactive)	87.5 µM (inactive)		32.7 µM (inactive)	20.5 µM (inactive)	46.6 µM (inactive)	22.3 µM (inactive)	28 µM (inactive)	21.9 µM (inactive)	30.5 µM (inactive)	24.8 µM (inactive)	27.7 µM (inactive)	29.2 µM (inactive)	32.7 µM (inactive)	> 100 µM (inactive)	> 100 µM (inactive)
CC(=O)CCCCCCCCCCCC[C@@H]1CC[C@H](C)[C@H](O)N1	> 100 µM (inactive)	40.3 µM (inactive)		> 100 µM (inactive)	> 100 µM (inactive)	> 100 µM (inactive)	> 100 µM (inactive)	> 100 µM (inactive)	> 100 µM (inactive)	97.7 µM (inactive)		> 100 µM (inactive)	> 100 µM (inactive)	> 100 µM (inactive)	> 100 µM (inactive)	
COc1cccc(NC(=S)Nn2c(C)nc3ccccc3c2=O)c1	> 100 µM (inactive)	> 100 µM (inactive)	> 100 µM (inactive)	80.2 µM (inactive)	> 100 µM (inactive)	> 100 µM (inactive)	> 100 µM (inactive)		> 100 µM (inactive)	71.6 µM (inactive)	> 100 µM (inactive)	> 100 µM (inactive)	> 100 µM (inactive)	> 100 µM (inactive)	> 100 µM (inactive)	> 100 µM (inactive)
Cc1nc(-n2nc(-c3ccccc3)cc2-c2ccccc2)sc1C(=O)/C=C/c1ccccc1	> 100 µM (inactive)	> 100 µM (inactive)	> 100 µM (inactive)		> 100 µM (inactive)	75.5 µM (inactive)	9.79 µM (inactive)	> 100 µM (inactive)	59 µM (inactive)	> 100 µM (inactive)	> 100 µM (inactive)	> 100 µM (inactive)	> 100 µM (inactive)	70.1 µM (inactive)	> 100 µM (inactive)	> 100 µM (inactive)
Cc1cc2c(=O)n(-c3ccc(F)cc3)c(C)nc2c(C(=O)O)c1C	> 100 µM (inactive)	> 100 µM (inactive)	> 100 µM (inactive)	> 100 µM (inactive)	> 100 µM (inactive)	> 100 µM (inactive)	> 100 µM (inactive)		> 100 µM (inactive)	> 100 µM (inactive)	> 100 µM (inactive)	> 100 µM (inactive)	> 100 µM (inactive)	> 100 µM (inactive)	> 100 µM (inactive)	> 100 µM (inactive)
NNC(=O)C(=O)N/N=C(\CCCC(=O)Nc1ccc(Cl)cc1)CC(=O)c1ccc(F)cc1	> 100 µM (inactive)	13.9 µM (inactive)	> 100 µM (inactive)	> 100 µM (inactive)	> 100 µM (inactive)	> 100 µM (inactive)		> 100 µM (inactive)	> 100 µM (inactive)	3.43 µM (inactive)		> 100 µM (inactive)	> 100 µM (inactive)	> 100 µM (inactive)	> 100 µM (inactive)	2.66 µM (inactive)
